From ChEMBL document CHEMBL5678816, “A Next-Generation TRK Kinase Inhibitor Overcomes Acquired Resistance to Prior TRK Kinase Inhibition in Patients with TRK Fusion-Positive Solid Tumors” (Cancer Discov, 2017)
Calls of active or inactive are those of the source. The calls are words filed in the database; no cut-off is given here.

Columns and labels:
[1] = target: Mitogen-activated protein kinase 14 (Homo sapiens) (UniProt Q16539); test: Inhibition of p38alpha (unknown origin) at 1 uM in presence of ATP relative to control; values are per cent of control
[2] = target: Misshapen-like kinase 1 (Homo sapiens) (UniProt Q8N4C8); test: Inhibition of MINK (unknown origin) at 1 uM in presence of ATP relative to control; values are per cent of control
Sequence of Misshapen-like kinase 1 (Homo sapiens) (Q8N4C8 whole entry, looked up): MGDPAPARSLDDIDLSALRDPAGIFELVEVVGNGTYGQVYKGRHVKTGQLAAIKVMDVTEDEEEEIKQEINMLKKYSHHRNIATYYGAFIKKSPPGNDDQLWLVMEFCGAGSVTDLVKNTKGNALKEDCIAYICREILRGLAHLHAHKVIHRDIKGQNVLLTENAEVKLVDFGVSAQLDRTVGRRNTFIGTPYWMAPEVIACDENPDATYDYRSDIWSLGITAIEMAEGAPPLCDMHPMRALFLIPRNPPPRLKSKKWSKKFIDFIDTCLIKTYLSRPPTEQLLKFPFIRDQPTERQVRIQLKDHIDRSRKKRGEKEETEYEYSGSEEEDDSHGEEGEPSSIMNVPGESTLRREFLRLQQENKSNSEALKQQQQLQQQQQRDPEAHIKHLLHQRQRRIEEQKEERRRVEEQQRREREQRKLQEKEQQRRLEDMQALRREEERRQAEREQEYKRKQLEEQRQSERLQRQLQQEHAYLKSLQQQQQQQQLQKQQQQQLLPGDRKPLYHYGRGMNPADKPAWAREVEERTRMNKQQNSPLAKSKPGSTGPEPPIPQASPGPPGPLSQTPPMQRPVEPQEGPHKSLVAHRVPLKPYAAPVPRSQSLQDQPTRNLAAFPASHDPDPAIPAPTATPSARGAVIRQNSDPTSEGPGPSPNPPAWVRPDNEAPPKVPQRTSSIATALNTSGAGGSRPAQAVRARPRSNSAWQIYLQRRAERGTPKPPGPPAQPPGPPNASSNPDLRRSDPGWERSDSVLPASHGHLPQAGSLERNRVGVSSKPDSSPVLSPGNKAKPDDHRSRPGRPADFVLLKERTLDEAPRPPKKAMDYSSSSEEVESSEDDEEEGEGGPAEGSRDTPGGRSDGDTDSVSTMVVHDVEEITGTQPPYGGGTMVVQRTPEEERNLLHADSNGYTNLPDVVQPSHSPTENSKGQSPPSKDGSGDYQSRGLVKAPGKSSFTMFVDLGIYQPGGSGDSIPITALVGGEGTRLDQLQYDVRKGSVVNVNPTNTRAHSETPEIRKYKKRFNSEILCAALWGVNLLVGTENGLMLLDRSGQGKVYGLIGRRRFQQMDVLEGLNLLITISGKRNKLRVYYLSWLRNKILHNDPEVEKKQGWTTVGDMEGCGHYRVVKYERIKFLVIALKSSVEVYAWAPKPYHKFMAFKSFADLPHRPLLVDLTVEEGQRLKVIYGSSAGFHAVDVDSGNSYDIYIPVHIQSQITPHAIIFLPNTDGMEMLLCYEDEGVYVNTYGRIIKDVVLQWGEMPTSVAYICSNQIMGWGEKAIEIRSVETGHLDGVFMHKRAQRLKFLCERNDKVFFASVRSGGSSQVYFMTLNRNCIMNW

[3] = target: Cyclin-dependent kinase 2/cyclin E1 (Homo sapiens) (UniProt P24864+P24941); test: Inhibition of CDK2/cyclinE (unknown origin) at 1 uM in presence of ATP relative to control; values are per cent of control
SHP77 = test: Inhibition of cell proliferation in human SHP77 cells upto 10 umol/L incubated for 72 hrs by DAPI staining based analysis; assay type: functional; conditions: dose <= 10.0 µmol/L
NIH3T3 [4] = test: Antitumor activity against mouse NIH3T3 cells harboring extracellular domain deleted TRKA G595R mutant implanted in nu/nu NCr mouse assessed as inhibition of tumor growth at 30 to 300 mg/kg, po administered twice daily for 12 days; assay type: functional, organism-based; conditions: dose 30-300 mg/kg, time 12.0 day
[5] = target: Ephrin type-A receptor 1 (Homo sapiens) (UniProt P21709); test: Inhibition of EphA1 (unknown origin) at 1 uM in presence of ATP relative to control; values are per cent of control
[6] = target: Fibroblast growth factor receptor 3 (Homo sapiens) (UniProt P22607); test: Inhibition of FGFR3 (unknown origin) at 1 uM in presence of ATP relative to control; values are per cent of control
[7] = target: Serine/threonine-protein kinase tousled-like 2 (Homo sapiens) (UniProt Q86UE8); test: Inhibition of TLK2 (unknown origin) at 1 uM in presence of ATP relative to control; values are per cent of control
[8] = target: Serine/threonine-protein kinase Nek7 (Homo sapiens) (UniProt Q8TDX7); test: Inhibition of NEK7 (unknown origin) at 1 uM in presence of ATP relative to control; values are per cent of control
[9] = target: cGMP-dependent protein kinase 1 (Homo sapiens) (UniProt Q13976); test: Inhibition of PRKG1beta (unknown origin) at 1 uM in presence of ATP relative to control; values are per cent of control
Sequence of cGMP-dependent protein kinase 1 (Homo sapiens) (Q13976 whole entry): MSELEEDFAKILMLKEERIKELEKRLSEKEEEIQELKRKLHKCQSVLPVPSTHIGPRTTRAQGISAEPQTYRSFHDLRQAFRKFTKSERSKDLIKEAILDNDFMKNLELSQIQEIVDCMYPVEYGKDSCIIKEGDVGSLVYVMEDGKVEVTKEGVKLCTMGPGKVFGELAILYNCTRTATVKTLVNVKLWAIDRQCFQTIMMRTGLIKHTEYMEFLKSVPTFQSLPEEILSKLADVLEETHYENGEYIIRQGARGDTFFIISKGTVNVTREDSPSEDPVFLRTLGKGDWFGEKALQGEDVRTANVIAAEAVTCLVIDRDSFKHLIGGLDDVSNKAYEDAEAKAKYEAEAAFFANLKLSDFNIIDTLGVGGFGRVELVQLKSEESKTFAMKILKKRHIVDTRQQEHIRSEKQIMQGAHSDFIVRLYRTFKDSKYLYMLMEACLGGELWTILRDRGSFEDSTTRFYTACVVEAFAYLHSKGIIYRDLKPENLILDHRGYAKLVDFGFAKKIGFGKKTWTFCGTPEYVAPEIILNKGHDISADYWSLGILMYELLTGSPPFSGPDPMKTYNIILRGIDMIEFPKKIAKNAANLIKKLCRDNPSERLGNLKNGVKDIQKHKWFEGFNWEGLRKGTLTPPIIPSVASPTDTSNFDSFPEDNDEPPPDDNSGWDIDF

NIH3T3 [10] = assay type: functional, organism-based; conditions: Mus musculus, dose 30-300 mg/kg, route po, time 9.0 day
[11] = target: Dual specificity mitogen-activated protein kinase kinase 7 (Homo sapiens) (UniProt O14733); test: Inhibition of MKK7 (unknown origin) at 1 uM in presence of ATP relative to control; values are per cent of control
[12] = Cmin in adult patient with recurrent LMNA-NTRK1 rearranged colorectal cancer at 100 mg administered twice a day as powder-in-capsule or liquid formulation for 22 day and measured 10 hrs post dose by LC-MS/MS analysis; assay type: ADME; conditions: human, in vivo, po, read-out: Cmin
NCI-H441 = test: Inhibition of cell proliferation in human NCI-H441 cells upto 10 umol/L incubated for 72 hrs by DAPI staining based analysis; assay type: functional; conditions: dose <= 10.0 µmol/L
[13] = Toxicity in nu/nu NCr mouse implanted with mouse NIH3T3 cells harboring extracellular domain deleted TRKA G595R mutant assessed as body weight loss at 30 to 300 mg/kg, po administered twice daily for 12 days relative to control; assay type: organism-based; conditions: in vivo, 288 h, dose 30-300 mg/kg, time 12 day
[14] = Cmin in adult patient with recurrent LMNA-NTRK1 rearranged colorectal cancer at 50 mg administered twice a day as powder-in-capsule or liquid formulation for 1 day and measured 10 hrs post dose by LC-MS/MS analysis; assay type: ADME; conditions: human, in vivo, po, read-out: Cmin
[15] = target: Ribosomal protein S6 kinase alpha-6 (Homo sapiens) (UniProt Q9UK32); test: Inhibition of Rsk4 (unknown origin) at 1 uM in presence of ATP relative to control; values are per cent of control
Sequence of Ribosomal protein S6 kinase alpha-6 (Homo sapiens) (Q9UK32 whole entry): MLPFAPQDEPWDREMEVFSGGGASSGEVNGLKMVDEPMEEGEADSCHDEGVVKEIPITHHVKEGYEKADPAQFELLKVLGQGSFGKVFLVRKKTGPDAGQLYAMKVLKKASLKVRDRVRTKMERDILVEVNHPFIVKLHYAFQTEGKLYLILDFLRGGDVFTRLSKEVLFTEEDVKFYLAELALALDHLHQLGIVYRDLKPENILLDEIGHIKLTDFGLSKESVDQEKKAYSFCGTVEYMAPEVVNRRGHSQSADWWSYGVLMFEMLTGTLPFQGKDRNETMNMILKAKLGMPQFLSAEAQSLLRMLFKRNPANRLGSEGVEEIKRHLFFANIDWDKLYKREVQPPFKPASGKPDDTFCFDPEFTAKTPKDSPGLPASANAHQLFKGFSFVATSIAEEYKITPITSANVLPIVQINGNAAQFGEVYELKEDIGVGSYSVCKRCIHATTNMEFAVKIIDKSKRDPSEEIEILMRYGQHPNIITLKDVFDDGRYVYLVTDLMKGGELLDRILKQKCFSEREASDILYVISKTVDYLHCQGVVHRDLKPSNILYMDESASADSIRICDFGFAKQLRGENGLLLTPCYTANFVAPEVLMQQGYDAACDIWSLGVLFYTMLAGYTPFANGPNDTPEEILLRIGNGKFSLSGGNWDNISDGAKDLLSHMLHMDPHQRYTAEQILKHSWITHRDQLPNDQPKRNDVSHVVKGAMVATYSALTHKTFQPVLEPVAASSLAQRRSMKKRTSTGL

[16] = target: Serine/threonine-protein kinase TAO2 (Homo sapiens) (UniProt Q9UL54); test: Inhibition of TAO2 (unknown origin) at 1 uM in presence of ATP relative to control; values are per cent of control
Sequence of Serine/threonine-protein kinase TAO2 (Homo sapiens) (Q9UL54 whole entry): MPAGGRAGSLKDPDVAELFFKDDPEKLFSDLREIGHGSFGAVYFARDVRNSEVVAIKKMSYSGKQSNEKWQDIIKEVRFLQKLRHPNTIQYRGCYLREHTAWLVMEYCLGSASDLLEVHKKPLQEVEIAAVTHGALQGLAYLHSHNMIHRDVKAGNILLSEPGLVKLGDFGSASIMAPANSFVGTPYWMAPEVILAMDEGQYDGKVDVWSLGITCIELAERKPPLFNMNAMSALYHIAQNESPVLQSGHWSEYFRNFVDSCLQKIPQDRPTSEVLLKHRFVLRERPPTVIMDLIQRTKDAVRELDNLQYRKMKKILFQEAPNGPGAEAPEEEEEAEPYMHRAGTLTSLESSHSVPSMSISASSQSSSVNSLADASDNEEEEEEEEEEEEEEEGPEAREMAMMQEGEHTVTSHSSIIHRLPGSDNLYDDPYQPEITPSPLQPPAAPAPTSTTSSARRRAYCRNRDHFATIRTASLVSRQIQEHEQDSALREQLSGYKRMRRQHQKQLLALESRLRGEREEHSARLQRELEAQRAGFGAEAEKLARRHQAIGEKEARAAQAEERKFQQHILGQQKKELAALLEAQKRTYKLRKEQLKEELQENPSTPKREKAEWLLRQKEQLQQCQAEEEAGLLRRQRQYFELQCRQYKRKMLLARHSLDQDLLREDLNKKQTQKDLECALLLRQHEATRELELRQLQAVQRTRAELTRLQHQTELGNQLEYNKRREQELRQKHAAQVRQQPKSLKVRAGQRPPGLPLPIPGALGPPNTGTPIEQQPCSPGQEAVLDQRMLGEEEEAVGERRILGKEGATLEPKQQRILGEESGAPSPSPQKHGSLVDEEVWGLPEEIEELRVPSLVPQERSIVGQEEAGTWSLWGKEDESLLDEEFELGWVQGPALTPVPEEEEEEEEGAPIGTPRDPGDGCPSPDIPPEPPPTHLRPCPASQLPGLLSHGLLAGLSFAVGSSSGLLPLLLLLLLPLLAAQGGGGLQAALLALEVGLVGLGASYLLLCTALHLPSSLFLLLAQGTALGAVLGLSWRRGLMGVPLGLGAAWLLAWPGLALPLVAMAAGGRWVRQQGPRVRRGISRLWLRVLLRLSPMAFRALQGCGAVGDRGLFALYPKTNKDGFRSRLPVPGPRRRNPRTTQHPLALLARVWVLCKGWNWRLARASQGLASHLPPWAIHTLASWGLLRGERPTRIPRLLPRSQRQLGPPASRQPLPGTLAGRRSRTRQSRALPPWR

[17] = target: Serine/threonine-protein kinase 10 (Homo sapiens) (UniProt O94804); test: Inhibition of LOK (unknown origin) at 1 uM in presence of ATP relative to control; values are per cent of control
[18] = Inhibition of N-terminal 3FLAG-tagged ETV6-TRKC G623R mutant (unknown origin) expressed in NIH3T3 cells assessed as ERK1/2 phosphorylation incubated for 1 hrs by flow cytometric analysis; assay type: cell-based, Homo sapiens
MV4-11 = test: Inhibition of cell proliferation in human MV4-11 cells upto 10 umol/L incubated for 72 hrs by DAPI staining based analysis; assay type: functional; conditions: dose <= 10.0 µmol/L
SU-DHL10 = test: Inhibition of cell proliferation in human SU-DHL-10 cells upto 10 umol/L incubated for 72 hrs by DAPI staining based analysis; assay type: functional; conditions: dose <= 10.0 µmol/L
[19] = AUC in adult patient with recurrent LMNA-NTRK1 rearranged colorectal cancer at 50 mg administered twice a day as powder-in-capsule or liquid formulation for 1 day by LC-MS/MS analysis; assay type: ADME; conditions: human, in vivo, po
[20] = target: Serine/threonine-protein kinase VRK2 (Homo sapiens) (UniProt Q86Y07); test: Inhibition of VRK2 (unknown origin) at 1 uM in presence of ATP relative to control; values are per cent of control
TF-1 = test: Inhibition of cell proliferation in human TF-1 cells upto 10 umol/L incubated for 72 hrs by DAPI staining based analysis; assay type: functional; conditions: dose <= 10.0 µmol/L
[21] = target: Protein kinase C zeta type (Homo sapiens) (UniProt Q05513); test: Inhibition of PKCzeta (unknown origin) at 1 uM in presence of ATP relative to control; values are per cent of control
Sequence of Protein kinase C zeta type (Homo sapiens) (Q05513 whole entry): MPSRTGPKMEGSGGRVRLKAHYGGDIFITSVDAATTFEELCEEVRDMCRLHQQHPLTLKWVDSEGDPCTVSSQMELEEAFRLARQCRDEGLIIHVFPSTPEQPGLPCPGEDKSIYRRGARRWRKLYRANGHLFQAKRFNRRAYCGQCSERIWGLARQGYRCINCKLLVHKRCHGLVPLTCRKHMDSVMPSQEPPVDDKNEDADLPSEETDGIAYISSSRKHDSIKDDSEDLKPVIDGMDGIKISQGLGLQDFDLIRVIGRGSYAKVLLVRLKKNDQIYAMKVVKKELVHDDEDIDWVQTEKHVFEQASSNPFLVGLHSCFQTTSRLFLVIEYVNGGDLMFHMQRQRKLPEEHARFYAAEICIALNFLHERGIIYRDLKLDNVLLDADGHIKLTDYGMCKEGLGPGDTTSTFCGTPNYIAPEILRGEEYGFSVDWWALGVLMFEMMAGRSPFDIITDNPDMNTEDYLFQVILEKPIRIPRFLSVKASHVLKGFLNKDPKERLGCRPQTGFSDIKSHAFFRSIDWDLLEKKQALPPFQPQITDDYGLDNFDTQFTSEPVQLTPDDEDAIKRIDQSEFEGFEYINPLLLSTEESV

[22] = target: Glycogen synthase kinase-3 beta (Homo sapiens) (UniProt P49841); test: Inhibition of GSK3beta (unknown origin) at 1 uM in presence of ATP relative to control; values are per cent of control
Sequence of Glycogen synthase kinase-3 beta (Homo sapiens) (P49841 whole entry, looked up): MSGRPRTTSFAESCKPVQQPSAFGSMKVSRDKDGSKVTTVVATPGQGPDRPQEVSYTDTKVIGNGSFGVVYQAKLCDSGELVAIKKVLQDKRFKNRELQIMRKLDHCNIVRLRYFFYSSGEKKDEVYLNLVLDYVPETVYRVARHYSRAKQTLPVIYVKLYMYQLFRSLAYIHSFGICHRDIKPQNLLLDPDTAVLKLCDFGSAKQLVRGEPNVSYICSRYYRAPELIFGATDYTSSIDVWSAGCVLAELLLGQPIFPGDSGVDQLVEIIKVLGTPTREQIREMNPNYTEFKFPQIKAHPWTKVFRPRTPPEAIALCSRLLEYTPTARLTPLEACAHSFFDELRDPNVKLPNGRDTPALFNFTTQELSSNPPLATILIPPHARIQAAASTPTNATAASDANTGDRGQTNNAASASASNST

BT-474 = test: Inhibition of cell proliferation in human BT-474 cells upto 10 umol/L incubated for 72 hrs by DAPI staining based analysis; assay type: functional; conditions: dose <= 10.0 µmol/L
[23] = target: Serine/threonine-protein kinase TBK1 (Homo sapiens) (UniProt Q9UHD2); test: Inhibition of TBK1 (unknown origin) at 1 uM in presence of ATP relative to control; values are per cent of control

**Q.** Which results are given for C[C@@H]1CCc2ncc(F)cc2[C@H]2CCCN2c2ccn3ncc(c3n2)C(=O)N1 [SELITRECTINIB]?
**A.** residual activity [1]: 109%; residual activity [2]: 99.5%; residual activity [3]: 106%; inhibition (SHP77): inactive; Activity (NIH3T3 [4]): Active; residual activity [5]: 74%; residual activity [6]: 119%; residual activity [7]: 108%; residual activity [8]: 103%; residual activity [9]: 114%; Activity (NIH3T3 [10]): Active; residual activity [11]: 115%; concentration at 538 h [12]: 14.7 ng/mL; inhibition (NCI-H441): inactive; Activity [13]: < 5%; concentration at 34 h [14]: 1.86 ng/mL; residual activity [15]: 127%; residual activity [16]: 104%; residual activity [17]: 99.5%; IC50 [18]: 45.5 nM; inhibition (MV4-11): inactive; inhibition (SU-DHL10): inactive; AUC at 24 h [19]: 1190 ng·h/mL; residual activity [20]: 98%; inhibition (TF-1): inactive; residual activity [21]: 106%; residual activity [22]: 124%; inhibition (BT-474): inactive; residual activity [23]: 111%
